Data as given in patent publication US9120795B2, “Crystalline form of a β-lactamase inhibitor” (Cubist Pharmaceuticals, Inc., priority 2013, dated 2015).

Key:
Experiment in all cases: Standard BLI potentiation MIC assay
Format in all cases: cell-based
[1] = system: Kpn.2478 (KPC-2, TEM+, clinical); conditions: Klebsiella pneumoniae, read-out: MIC of β-lactam with BLI
Experimental: (§1) The experimental protocol was performed according to Clinical and Laboratory Standards Institute (CLSI) guidelines with modifications as described below (CLSI guidelines can be derived from the CLSI document M07-A9 published in January 2012: “Methods for Dilution Antimicrobial Susceptibility Tests for Bacteria That Grow Aerobically; Approved Standard-Ninth Edition”).
(§2) To prepare for MIC testing, frozen glycerol stocks of clinical isolates (Klebsiella pneumoniae, Eschericia coli, Enterobacter spp, Citrobacter spp, or Pseudomonas aeruginosa) were used to streak for isolated colonies on rich, non-selective, tryptic soy agar containing 5% sheep's blood (TSAB). Frozen glycerol stocks of laboratory engineered, isogenic E. coli strains, which contain cloned β-lactamase expressing plasmids were used to streak for isolated colonies on rich, selective LB agar supplemented with 25 μg/mL tetracycline to maintain the plasmid. All strains were incubated at 37° C. for 18-24 hrs.
(§3) On the day of testing, primary cultures were started by scraping off 5-10 colonies from the TSAB plates containing clinical strains or the tetracycline supplemented LB plates containing engineered strains. The clinical strain material was suspended in ˜5 mL of cation adjusted Mueller Hinton Broth (CAMHB) in 14 mL culture tubes. The engineered strain material was suspended in CAMHB (supplemented with 25 μg/mL tetracycline) in 14 mL culture tubes. All strains were incubated at 37° C. with aeration (200 rpm) for ˜2 hrs until the optical density at 600 nm (OD600) was ≧0.1.
(§4) The two compound components of the assay were each diluted in CAMHB and added to the 96-well broth microdilution assay plates. 50 μL of the β-lactam was added to each well of the assay plate in 2-fold dilutions with final concentrations ranging from 128 to 0.13 μg/mL. 25 μL of the BLI compound was added to all wells in the broth microdilution plates at a final concentration of 4 μg/mL. Inoculum cultures were prepared by standardizing the primary cultures to OD600=0.1 and then adding 20 μL of the adjusted primary culture per 1 mL CAMHB for clinical strains or CAMHB (supplemented with tetracycline at 100 μg/mL) for engineered strains, so that the final inoculum density was ˜10^5 colony forming units per milliliter. Diluted inoculum cultures were used to inoculate 25 μL per well in 96-well broth microdilution assay plates. The final volume of each well was 100 μL and contained a β-lactam at different concentrations, a BLlcompound at 4 μg/mL concentration, the bacterial culture at an OD600 of approximately 0.001 and when necessary tetracycline at 25 μg/mL.
(§5) Plates were incubated for 18-20 hours at 37° C. with aeration (200 rpm). Following incubation, growth was confirmed visually placing plates over a viewing apparatus (stand with a mirror underneath) and then OD600 was measured using a SpectraMax 340PC384 plate reader (Molecular Devices, Sunnyvale, Calif.). Growth was defined as turbidity that could be detected with the naked eye or achieving minimum OD600 of 0.1. MIC values were defined as the lowest concentration producing no visible turbidity.

[2] = system: Kpn.2490 (KPC-3, SHV+, TEM+, clinical); conditions: Klebsiella pneumoniae, read-out: MIC of β-lactam with BLI
Experimental: as §1, §2, §3, §4, §5

[3] = system: Kpn.2783 (CTX-M-15, SHV+, TEM+, clinical); conditions: Klebsiella pneumoniae, read-out: MIC of β-lactam with BLI
Experimental: as §1, §2, §3, §4, §5

[4] = system: Kpn.2909 (KPC-3, SHV+, TEM+, clinical); conditions: Klebsiella pneumoniae, read-out: MIC of β-lactam with BLI
Experimental: as §1, §2, §3, §4, §5

[5] = system: Kpn.2913 (KPC-2, SHV+, clinical); conditions: Klebsiella pneumoniae, read-out: MIC of β-lactam with BLI
Experimental: as §1, §2, §3, §4, §5

[6] = system: Kpn.2914 (KPC-2, SHV+, clinical); conditions: Klebsiella pneumoniae, read-out: MIC of β-lactam with BLI
Experimental: as §1, §2, §3, §4, §5

[7] = system: Kpn.2917 (KPC-2, SHV+, clinical); conditions: Klebsiella pneumoniae, read-out: MIC of β-lactam with BLI
Experimental: as §1, §2, §3, §4, §5

[8] = system: Kpn.2918 (KPC-3, SHV+, TEM+, clinical); conditions: Klebsiella pneumoniae, read-out: MIC of β-lactam with BLI
Experimental: as §1, §2, §3, §4, §5

[9] = system: Kpn.2926 (CTX-M-15, OXA-48, clinical); conditions: Klebsiella pneumoniae, read-out: MIC of β-lactam with BLI
Experimental: as §1, §2, §3, §4, §5

[10] = system: Kpn.571 (TEM-26, clinical); conditions: Klebsiella pneumoniae, read-out: MIC of β-lactam with BLI
Experimental: as §1, §2, §3, §4, §5

[11] = system: Pae.2757 (AmpC over-expn, clinical); conditions: Pseudomonas aeruginosa, read-out: MIC of β-lactam with BLI
Experimental: as §1, §2, §3, §4, §5

[12] = system: Pae.2808 (KPC-2, clinical); conditions: Pseudomonas aeruginosa, read-out: MIC of β-lactam with BLI
Experimental: as §1, §2, §3, §4, §5

[13] = system: Pae.2863 (AmpC de-repress, clinical); conditions: Pseudomonas aeruginosa, read-out: MIC of β-lactam with BLI
Experimental: as §1, §2, §3, §4, §5

[14] = system: Pae.2885 (AmpC, clinical); conditions: Pseudomonas aeruginosa, read-out: MIC of β-lactam with BLI
Experimental: as §1, §2, §3, §4, §5

O=C1N2C[C@@H](CC[C@H]2c2nnco2)N1OS(=O)(=O)[O-].[Na+] [Hydrate 1, sodium (2S,5R)-2-(1,3,4-oxadiazol-2-yl)-7-oxo-1,6-diazabicyclo[3.2.1]octan-6-yl sulfate]
MIC [1]: 4 to 8 µg/mL
MIC [2]: 0.25 to 0.5 µg/mL
MIC [3]: 0.25 to 0.5 µg/mL
MIC [4]: 1 to 2 µg/mL
MIC [5]: 0.25 to 0.5 µg/mL
MIC [6]: 1 to 2 µg/mL
MIC [7]: 0.25 to 0.5 µg/mL
MIC [8]: 1 to 2 µg/mL
MIC [9]: 1 to 2 µg/mL
MIC [10]: 0.25 to 0.5 µg/mL
MIC [11]: 1 to 2 µg/mL
MIC [12]: 4 to 8 µg/mL
MIC [13]: 1 to 2 µg/mL
MIC [14]: 0.25 to 0.5 µg/mL
